Laboratory results published in PubChem BioAssay (NCI).
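Each compound was tested at five concentrations against cells in 96-well plates for 48 hours. GI50 is the concentration that inhibits growth by half. Definition used: TGI = concentration required for complete inhibition of growth.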 Calls of active or inactive are those of the source. Cut-off read from the data, not from the text of the source: active = GI50 below about 0.43 µM; inactive = the rest.

Columns and labels:
Experiment in all cases: inhibition of tumour cell growth, NCI panel, 48 h
[1] = test system: EKVX NSCLC
[2] = test system: HCC-2998 colon
[3] = test system: HT29 colon
[4] = test system: LOX IMVI melanoma
[5] = test system: NCI-H460 lung
[6] = test system: OVCAR-3 ovarian
[7] = test system: SK-MEL-28 melanoma
[8] = test system: SR leukemia

| SMILES | GI50 [1] [µM] | TGI [1] [µM] | GI50 [2] [µM] | TGI [2] [µM] | GI50 [3] [µM] | TGI [3] [µM] | GI50 [4] [µM] | TGI [4] [µM] | GI50 [5] [µM] | TGI [5] [µM] | GI50 [6] [µM] | TGI [6] [µM] | GI50 [7] [µM] | TGI [7] [µM] | GI50 [8] [µM] | TGI [8] [µM] | outcome [2] | outcome [5] | outcome [6] |
| --- | --- | --- | --- | --- | --- | --- | --- | --- | --- | --- | --- | --- | --- | --- | --- | --- | --- | --- | --- |
| O=c1cc(-c2ccccc2)oc2cc(OC/C(=N/O)c3ccccc3)ccc12 | 24.8 | > 50 | 30.7 | > 50 | 22.4 | > 50 | 30.5 | > 50 | 14.2 | > 50 | 12.8 | > 50 | 12.3 | 32.2 | 31.8 | > 50 |  |  |  |
| Cc1cc(Cl)cc2c1NC(=O)C2(O)CC(=O)c1ccco1 (stereo not drawn) |  | > 100 |  | > 100 |  | > 100 |  | > 69.8 |  | > 100 |  | > 100 |  | > 100 |  | 64.7 |  |  |  |
| COc1cc(Nc2nc3ccccc3nc2-c2cccs2)cc(OC)c1OC |  | > 100 |  | > 100 |  | > 100 |  | > 100 |  | > 100 |  | > 100 |  | > 100 |  | > 100 |  |  |  |
| O=C(O)CCNC1CCCCC1 | > 100 | > 100 | > 100 | > 100 | > 100 | > 100 | > 100 | > 100 | > 100 | > 100 | > 100 | > 100 | > 100 | > 100 | > 100 | > 100 |  |  |  |
| Cc1ccc2c(c1)Sc1c(ccc3ccccc13)N2 | > 100 | > 100 | 98.7 | > 100 | 51.2 | > 100 | 8.91 | > 100 | 5.37 | > 100 | > 100 | > 100 | > 100 | > 100 | 4.4 | > 100 |  |  |  |
| O=C(CCc1nnc2sc(-c3ccc(Cl)cc3Cl)nn12)c1nc2ccccc2[nH]1 | 1.93 | 5.92 | 1.42 | 2.92 | 0.374 | 2.01 | 0.233 | 0.671 | 0.988 | 2.39 | 0.491 | 1.71 | 0.452 | 1.68 | 0.301 |  |  |  |  |
| CC1CN1C(=O)NCCCCCCNC(=O)N1CC1C (stereo not drawn) |  | > 100 |  | > 100 |  | > 100 |  | > 60.3 |  | > 66.6 |  | > 100 |  | > 100 |  | 60.2 |  |  |  |
| CCCCCCCC[C@@H](O)CC(=O)N[C@@H](CC(N)=O)C(=O)N[C@@H](CCC(N)=O)C(=O)N[C@@H](CC(=O)c1cc(C)cc(O)c1C(=O)c1c(O)cccc1O)CC(C)C | 3.35 | 75.5 | 0.403 | 1.43 | 0.404 | 5.49 | 1.32 | 3.9 | 3.29 | 18.3 | 0.307 | 1.2 | 1.59 | 25.5 | 0.112 | > 100 |  |  |  |
| Cc1c(C(=O)C/C(=N/NC(=O)C[N+](C)(C)C)C(=O)Nc2ccc(Cl)cc2)[n+](=O)c2ccccc2n1O |  | > 100 |  | > 100 |  | > 100 |  | > 100 |  | > 100 |  | > 100 |  | > 100 |  | > 100 |  |  |  |
| O=C(O)c1nn(-c2ccccc2-c2n[nH]c(=O)[nH]c2=O)c(=O)[nH]c1=O |  | > 100 |  | > 100 |  | > 100 |  | > 100 |  | > 100 |  | > 100 |  | > 100 |  | > 100 |  |  |  |
| Nc1nccc(-c2c(-c3ccc(F)cc3)ncn2C2CCC(O)CC2)n1 (stereo not drawn) | 8.57 | > 25 | 17.3 | > 25 | 6.8 | > 25 | 9.34 | > 25 | 4.95 | > 25 | 9.47 | > 25 | 14.8 | > 25 | 12.5 | > 25 |  |  |  |
| CCOC(=S)SSSC(=S)OCC |  | > 100 |  | > 100 |  | > 100 |  | > 100 |  | > 100 |  | > 100 |  | > 100 |  | 42.1 |  |  |  |
| CS(=O)(=O)c1ccc(-n2nc(C(F)(F)F)cc2OC2CCCC2)cc1 | 82.5 | > 100 | 27 | 73.5 | 24.7 | 78.4 | 16.9 | 54.6 | 27.8 | > 100 | 32.9 | > 100 | > 100 | > 100 | 19.8 | 47.9 |  |  |  |
| NC(=O)NS(=O)(=O)c1ccc(N2N=C(C(F)(F)F)CC2c2cc(C(F)(F)F)cc(C(F)(F)F)c2)cc1 (stereo not drawn) | 2.82 | 11.3 | 10 | 23.9 | 3.1 | 13 | 5.76 | 19.1 | 3.47 | 11.7 | 1.83 | 4.12 | 4.39 | 16.7 | 3.08 | > 100 |  |  |  |
| COc1ccc(C(=O)C#Cc2cnc(OC)nc2OC)cc1 | 23700 |  |  | 3.83 | 17900 |  | 9800 |  |  | 10.8 |  | 3.24 | 89800 | 3.47 | 12500 | 43100 | inactive | inactive | inactive |
| COc1ccc(-c2onc(N)c2-c2cc(OC)c3c(c2)OCO3)cc1 | 6.58 | > 100 | 3.7 | > 87.7 | 1.65 | 11.9 | 3.68 | > 100 | 3 | 21.1 | 2.08 | 7.08 | 3.84 | > 100 | 0.534 | > 100 |  |  |  |
| O=C(O)C(=Cc1ccc(-c2ccccc2)cc1)C(=O)O |  | > 100 |  | 21.9 |  | > 49.3 |  | 25.9 |  | 35.7 |  | 17.5 |  | 48.3 |  | 14.7 |  |  |  |
| C#CCNC(=O)c1cccc2c1cc(C)n2-c1nc2c(c(NCc3ccccc3)n1)CCCC2 | 0.028 | 0.112 | 0.0164 | 0.0331 | 0.03 | 0.0924 | 0.0104 | 0.0256 | 0.0233 | 0.0723 | 0.0236 | 0.057 | 0.035 | 0.123 | 0.0156 | 0.165 |  |  |  |
